Measurements reported in article PMC9728921, “Characterization of a KDM5 small molecule inhibitor with antiviral activity against hepatitis B virus” (PLOS ONE, 2022).
pIC50: −log10 of the molar value.

Tests used:
KDM7B = KDM7B (Homo sapiens, UniProt Q9UPP1); test: KDM7B enzymatic assay (AlphaLISA); format: biochemical
Description: (§1) The following assay protocol was used for all histone demethylases tested except KDM1A, KDM5A, B, and D, which are described below. Compounds were serially diluted into a 384-well Alpha plate as a DMSO solution and mixed with 5 μL reaction buffer (buffer A) containing 50 mM HEPES (pH 7.0), 0.1% BSA, and 0.003% Tween-20. The enzyme of interest was pre-incubated with 15 μM of Fe^2+ for 10 min (except 30 min for KDM2B) in reaction buffer A. 5 μL of the enzyme mixture was added to each of the compound-containing wells and incubated for 10 min. The reaction was started by addition of a 5 μL mixture containing 300 nM peptide substrate, 75 μM L-ascorbic acid, and 30 μM α-ketoglutarate in buffer A. This final 15 μL of reaction mixture was incubated for 20 min for KDM5B and 1 hour for the other KDM enzymes. The reaction was quenched with 10 μL of diluted AlphaLISA Acceptor beads (1:400) in Epigenetics Buffer and incubated for 60 min. The Donor beads were diluted 1:400 into Epigenetics Buffer in the dark and 10 μL of this was added to each well and incubated for another 60 min in the dark. The assay plates were read on an Enspire plate reader (PerkinElmer) using a standard AlphaLISA program.
(§2) Data was analyzed using GraphPad Prism 6.0 (La Jolla, CA). […] IC50 values were calculated as an average of at least two independent experiments.

NSD1 = molecular target: T1, NSD1 (Homo sapiens, UniProt Q96L73); test: Histone methyltransferase enzymatic assay, NSD1; format: biochemical; settings: enzyme conc. 50 nM
T1 construct: 1538-2696; purchased RBC (read as Reaction Biology Corporation, named)
Description: (§3) Histone methyltransferase assays were performed in 96-well half-area optiplates (PerkinElmer) at room temperature. All concentrations are final unless noted otherwise. Compounds were serially diluted in DMSO and the final DMSO concentration was 1%. A 24 μL reaction mixture contained compound, enzyme, 200 nM of nucleosome or histone substrate, 400 nM ^3H-SAM (83.1 Ci/mmol), 50 mM Tris-HCl (pH 8.0), 50 mM NaCl, 5 mM MgCl2, 1 mM DTT, and 0.01% Tween-20. The plate was sealed, mixed on a Titramax plate shaker at 1200 rpm for 30 sec, and incubated at room temperature for 60 min. The reaction was quenched by addition of 24 μL mixture containing 5 mg/mL PVT-PEI beads and 300 μM unlabeled SAM in water. The plate was sealed, mixed as previously noted, incubated overnight, and read on a TopCount plate reader (PerkinElmer).
as §2

PRMT5/MEP50 = PRMT5/MEP50 (Homo sapiens, UniProt O14744); test: Histone methyltransferase enzymatic assay, PRMT5/MEP50; format: biochemical; settings: enzyme conc. 100 nM
Chain of PRMT5/MEP50 (O14744 2-637): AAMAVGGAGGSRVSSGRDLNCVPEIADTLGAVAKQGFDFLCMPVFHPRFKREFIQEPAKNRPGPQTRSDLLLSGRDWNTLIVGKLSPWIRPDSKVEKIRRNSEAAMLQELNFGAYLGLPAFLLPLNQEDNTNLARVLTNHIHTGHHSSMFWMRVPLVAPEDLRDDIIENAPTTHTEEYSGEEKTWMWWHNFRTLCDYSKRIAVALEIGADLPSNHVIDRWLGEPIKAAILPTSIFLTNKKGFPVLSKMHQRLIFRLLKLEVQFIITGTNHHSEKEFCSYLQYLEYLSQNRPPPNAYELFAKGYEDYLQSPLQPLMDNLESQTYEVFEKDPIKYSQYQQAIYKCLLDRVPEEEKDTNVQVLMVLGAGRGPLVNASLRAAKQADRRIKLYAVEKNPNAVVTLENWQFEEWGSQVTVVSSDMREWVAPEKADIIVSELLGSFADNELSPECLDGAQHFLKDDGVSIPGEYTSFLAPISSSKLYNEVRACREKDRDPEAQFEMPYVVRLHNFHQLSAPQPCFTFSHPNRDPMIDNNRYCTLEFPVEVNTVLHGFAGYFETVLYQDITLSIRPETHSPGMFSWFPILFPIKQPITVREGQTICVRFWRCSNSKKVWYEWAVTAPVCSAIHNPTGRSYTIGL
Chain of PRMT5/MEP50 (Q9BQA1 3-342 partner limits assumed): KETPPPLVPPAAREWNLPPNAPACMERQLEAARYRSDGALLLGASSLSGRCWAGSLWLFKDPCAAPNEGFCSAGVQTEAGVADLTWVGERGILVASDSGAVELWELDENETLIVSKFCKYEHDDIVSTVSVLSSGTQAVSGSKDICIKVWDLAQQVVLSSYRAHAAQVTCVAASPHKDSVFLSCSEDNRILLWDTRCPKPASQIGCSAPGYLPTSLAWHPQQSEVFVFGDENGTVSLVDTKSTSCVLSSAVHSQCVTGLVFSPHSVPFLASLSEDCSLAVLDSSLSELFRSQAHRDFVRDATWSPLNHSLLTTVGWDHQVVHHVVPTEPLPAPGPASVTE
Description: as §3, §2

HMT or HDAC enzymes = test: Panel of HMT and HDAC enzymes; format: biochemical; settings: no measurable inhibitory activity; read-out: IC50 against any of the HMT or HDAC enzymes tested
Description: Histone methyltransferase assays were performed in 96-well half-area optiplates (PerkinElmer) at room temperature. All concentrations are final unless noted otherwise. Compounds were serially diluted in DMSO and the final DMSO concentration was 1%. […] The plate was sealed, mixed on a Titramax plate shaker at 1200 rpm for 30 sec, and incubated at room temperature for 60 min. […] The plate was sealed, mixed as previously noted, incubated overnight, and read on a TopCount plate reader (PerkinElmer). The HDAC-1 histone deacetylase assay was tested using the FLUOR DE LYS platform ([…]). Inhibition of SIRT-1 histone deacetylase was tested with the AlphaLISA detection system. All assays were conducted at room temperature with a final DMSO concentration of 1%. […] After a 60-minute incubation, the reaction was quenched with 10 μL AlphaLISA H3K4-specific Acceptor beads (1:200) in Epigenetics Buffer, and the reaction mixture was incubated for 60 min. The Donor beads were diluted 1:200 into Epigenetics Buffer in the dark and 10 μL of this mixture was added to each well and incubated for another 60 min in the dark. The assay plates were read on an Enspire plate reader (PerkinElmer) using a standard AlphaLISA program. […] Data was analyzed using GraphPad Prism 6.0 (La Jolla, CA). […] IC50 values were calculated as an average of at least two independent experiments.

KDM6A = KDM6A (Homo sapiens, UniProt O15550); test: KDM6A enzymatic assay (AlphaLISA); format: biochemical
Chain of KDM6A (O15550 whole entry): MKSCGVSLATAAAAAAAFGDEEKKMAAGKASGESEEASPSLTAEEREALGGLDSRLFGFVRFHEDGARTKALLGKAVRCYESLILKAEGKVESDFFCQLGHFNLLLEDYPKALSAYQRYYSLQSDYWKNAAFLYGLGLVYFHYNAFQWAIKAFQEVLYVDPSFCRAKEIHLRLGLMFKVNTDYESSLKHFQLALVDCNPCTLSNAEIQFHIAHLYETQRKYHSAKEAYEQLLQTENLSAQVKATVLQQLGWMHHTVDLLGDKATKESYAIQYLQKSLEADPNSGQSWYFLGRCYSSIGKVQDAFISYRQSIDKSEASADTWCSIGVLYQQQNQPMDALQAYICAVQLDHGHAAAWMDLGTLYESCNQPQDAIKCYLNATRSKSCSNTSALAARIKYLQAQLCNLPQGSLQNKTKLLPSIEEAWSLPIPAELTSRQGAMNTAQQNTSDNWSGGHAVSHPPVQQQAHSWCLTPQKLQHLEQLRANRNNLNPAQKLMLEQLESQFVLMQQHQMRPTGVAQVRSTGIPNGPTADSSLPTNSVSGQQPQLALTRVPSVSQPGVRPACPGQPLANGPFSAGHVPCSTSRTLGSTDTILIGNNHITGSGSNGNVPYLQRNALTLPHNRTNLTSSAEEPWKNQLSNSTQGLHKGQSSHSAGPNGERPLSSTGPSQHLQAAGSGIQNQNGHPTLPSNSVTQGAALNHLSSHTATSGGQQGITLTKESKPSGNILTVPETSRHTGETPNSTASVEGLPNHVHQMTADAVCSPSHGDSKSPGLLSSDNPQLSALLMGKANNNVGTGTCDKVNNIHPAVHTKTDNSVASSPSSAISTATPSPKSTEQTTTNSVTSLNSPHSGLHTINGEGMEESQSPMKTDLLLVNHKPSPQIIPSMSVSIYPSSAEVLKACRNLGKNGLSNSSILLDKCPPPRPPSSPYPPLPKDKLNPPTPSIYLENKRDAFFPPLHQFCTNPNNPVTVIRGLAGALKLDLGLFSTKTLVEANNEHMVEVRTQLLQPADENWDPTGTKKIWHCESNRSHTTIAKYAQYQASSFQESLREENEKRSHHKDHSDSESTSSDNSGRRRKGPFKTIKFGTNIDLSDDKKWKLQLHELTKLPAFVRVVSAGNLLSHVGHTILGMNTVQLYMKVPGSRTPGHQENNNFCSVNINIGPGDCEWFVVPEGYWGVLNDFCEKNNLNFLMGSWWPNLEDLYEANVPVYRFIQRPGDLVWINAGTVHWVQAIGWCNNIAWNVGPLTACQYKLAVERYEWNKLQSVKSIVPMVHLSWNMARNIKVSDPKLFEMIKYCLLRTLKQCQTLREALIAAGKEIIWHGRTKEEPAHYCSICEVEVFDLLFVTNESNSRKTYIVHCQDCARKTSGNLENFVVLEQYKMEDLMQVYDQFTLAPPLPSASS
Description: as §1, §2

KDM6B = KDM6B (Homo sapiens, UniProt O15054); test: KDM6B enzymatic assay (AlphaLISA); format: biochemical
Chain of KDM6B (O15054 whole entry): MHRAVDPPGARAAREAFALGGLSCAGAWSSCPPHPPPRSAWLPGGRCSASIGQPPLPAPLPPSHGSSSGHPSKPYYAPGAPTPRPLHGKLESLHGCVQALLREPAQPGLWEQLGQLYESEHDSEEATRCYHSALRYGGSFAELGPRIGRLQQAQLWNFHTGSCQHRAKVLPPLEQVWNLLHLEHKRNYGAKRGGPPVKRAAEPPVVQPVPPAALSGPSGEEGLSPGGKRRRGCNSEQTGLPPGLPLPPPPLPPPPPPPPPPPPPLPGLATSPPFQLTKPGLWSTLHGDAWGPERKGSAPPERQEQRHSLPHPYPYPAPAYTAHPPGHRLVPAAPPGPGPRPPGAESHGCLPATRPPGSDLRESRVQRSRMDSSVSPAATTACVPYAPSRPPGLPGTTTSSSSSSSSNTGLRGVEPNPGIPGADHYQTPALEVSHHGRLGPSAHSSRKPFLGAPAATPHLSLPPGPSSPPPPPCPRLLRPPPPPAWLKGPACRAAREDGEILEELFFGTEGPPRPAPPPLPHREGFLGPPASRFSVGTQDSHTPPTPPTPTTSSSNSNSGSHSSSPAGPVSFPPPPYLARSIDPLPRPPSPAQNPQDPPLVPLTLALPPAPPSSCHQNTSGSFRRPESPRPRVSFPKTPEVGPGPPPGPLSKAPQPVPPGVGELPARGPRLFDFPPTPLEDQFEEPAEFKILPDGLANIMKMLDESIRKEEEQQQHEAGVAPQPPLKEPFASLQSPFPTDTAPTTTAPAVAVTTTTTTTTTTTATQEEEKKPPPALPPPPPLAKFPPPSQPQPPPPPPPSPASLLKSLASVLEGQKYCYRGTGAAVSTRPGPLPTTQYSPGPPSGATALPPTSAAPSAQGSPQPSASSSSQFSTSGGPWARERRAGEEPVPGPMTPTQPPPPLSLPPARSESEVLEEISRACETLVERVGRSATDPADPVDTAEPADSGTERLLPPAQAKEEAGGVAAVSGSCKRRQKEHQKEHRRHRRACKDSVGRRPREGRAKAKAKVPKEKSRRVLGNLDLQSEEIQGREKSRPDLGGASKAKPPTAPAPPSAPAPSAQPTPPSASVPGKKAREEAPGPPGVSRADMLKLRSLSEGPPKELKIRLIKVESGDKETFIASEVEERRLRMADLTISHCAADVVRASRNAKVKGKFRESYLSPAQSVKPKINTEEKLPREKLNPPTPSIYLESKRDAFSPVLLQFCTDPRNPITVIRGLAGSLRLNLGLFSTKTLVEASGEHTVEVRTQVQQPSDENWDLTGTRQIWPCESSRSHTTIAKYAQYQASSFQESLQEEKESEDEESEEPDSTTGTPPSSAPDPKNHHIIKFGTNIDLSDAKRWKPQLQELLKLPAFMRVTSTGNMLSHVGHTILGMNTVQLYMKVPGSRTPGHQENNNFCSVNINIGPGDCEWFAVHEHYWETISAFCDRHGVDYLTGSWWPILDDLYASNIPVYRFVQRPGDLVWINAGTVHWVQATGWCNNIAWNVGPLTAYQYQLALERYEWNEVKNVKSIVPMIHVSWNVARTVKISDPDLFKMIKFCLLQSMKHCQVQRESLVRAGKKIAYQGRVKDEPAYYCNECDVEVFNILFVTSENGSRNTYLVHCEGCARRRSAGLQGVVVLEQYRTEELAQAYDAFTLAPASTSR
Description: as §1, §2

[1] = format: in vivo, human
Excerpt: Nevertheless, any further clinical evaluation of KMD5 inhibitors in other therapeutic areas should pay close attention to hepatotoxic effects, which might me associated with inhibition of the biologic target even at low levels of engagement.
For the clinical studies mentioned above, all patients signed an informed consent form before screening and in accordance with local regulatory and ethics committee requirements.

Chain of KDM7B (Q9UPP1 whole entry): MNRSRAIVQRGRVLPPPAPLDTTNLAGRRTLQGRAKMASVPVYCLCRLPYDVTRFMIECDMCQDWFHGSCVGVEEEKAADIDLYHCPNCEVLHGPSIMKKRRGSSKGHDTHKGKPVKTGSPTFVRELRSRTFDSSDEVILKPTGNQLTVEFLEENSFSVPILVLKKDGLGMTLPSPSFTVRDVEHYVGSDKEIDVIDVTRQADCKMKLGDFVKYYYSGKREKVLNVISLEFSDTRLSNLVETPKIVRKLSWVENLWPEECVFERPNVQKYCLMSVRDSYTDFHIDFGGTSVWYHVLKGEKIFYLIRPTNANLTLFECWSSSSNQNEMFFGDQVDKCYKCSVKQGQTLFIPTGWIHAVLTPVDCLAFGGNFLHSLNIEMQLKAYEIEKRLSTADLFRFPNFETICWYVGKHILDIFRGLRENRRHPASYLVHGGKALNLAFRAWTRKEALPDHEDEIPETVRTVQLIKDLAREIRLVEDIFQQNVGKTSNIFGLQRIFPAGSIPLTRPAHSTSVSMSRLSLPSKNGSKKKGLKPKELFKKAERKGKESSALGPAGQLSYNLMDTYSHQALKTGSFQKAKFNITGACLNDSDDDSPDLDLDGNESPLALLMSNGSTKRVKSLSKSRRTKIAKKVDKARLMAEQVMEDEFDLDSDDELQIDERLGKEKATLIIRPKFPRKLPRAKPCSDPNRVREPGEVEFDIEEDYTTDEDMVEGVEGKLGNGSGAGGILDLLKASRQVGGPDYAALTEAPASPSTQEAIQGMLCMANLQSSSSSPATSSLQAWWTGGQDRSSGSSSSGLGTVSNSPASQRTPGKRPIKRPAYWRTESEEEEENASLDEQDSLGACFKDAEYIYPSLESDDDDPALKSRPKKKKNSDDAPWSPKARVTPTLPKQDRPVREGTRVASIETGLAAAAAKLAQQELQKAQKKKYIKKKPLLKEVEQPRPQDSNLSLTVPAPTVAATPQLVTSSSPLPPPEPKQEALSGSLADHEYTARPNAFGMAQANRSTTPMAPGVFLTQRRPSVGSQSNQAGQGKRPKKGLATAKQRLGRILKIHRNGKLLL

CCN(CCN(C)C)C(=O)CNCc1cc(C(=O)O)ccn1 [GS-080]
Fold Selectivity Compared to KDM5A (KDM7B; IC50 of KDM7B over KDM5A): > 1,110 fold
pIC50 (KDM7B; enzyme concentration 2.5 nM): 6.40
pIC50 (NSD1): < 4.00
pIC50 (PRMT5/MEP50): < 4.00
pIC50 (HMT or HDAC enzymes): < 4.00
Fold Selectivity Compared to KDM5A (KDM6A; IC50 of KDM6A over KDM5A): > 17,200 fold
pIC50 (KDM6A; enzyme concentration 2 nM): 5.21
Fold Selectivity Compared to KDM5A (KDM6B; IC50 of KDM6B over KDM5A): > 17,200 fold
pIC50 (KDM6B; enzyme concentration 1 nM, read-out: IC50): 5.21

CCOC(=O)c1ccnc(CNCC(=O)N(CC)CCN(C)C)c1 [GS-5801]
HBV antigen level decreases ([1]; HBV patients, to be published elsewhere): absence of any HBV antigen level decreases
liver toxicity ([1]; human, in vivo): dose limiting, reversible liver toxicity
